The results in this text go back to patent publication US20180000085A1, “USE OF PICOLINAMIDE COMPOUNDS WITH FUNGICIDAL ACTIVITY” (DOW AGROSCIENCES LLC, priority 2014, published 2018).

For assay [1], the system named is Zymoseptoria tritici. In words: Leaf blotch of wheat (SEPTTR) disease control on wheat seedlings. Details: key to SEPTTR 1DP, HV activity at 100 ppm (% control rating) / SEPTTR 3DC, HV activity at 100 ppm (% control rating) / SEPTTR disease control, 1DP / SEPTTR disease control, 3DC / SEPTTR 1DP disease control rating, HV activity / SEPTTR 3DC disease control rating, HV activity / SEPTTR 3DC, LV activity at 125.1 g/H (% Control rating) / SEPTTR 1DP, LV activity at 125.1 g/H (% Control rating) / SEPTTR 1DP disease control rating, LV activity at 125.1 g/H / SEPTTR 3DC disease control rating, LV activity at 125.1 g/H / SEPTTR 3DC disease control rating, HV activity at 100 ppm / SEPTTR 1DP disease control rating, HV activity at 100 ppm / HV activity at 100 ppm SEPTTR 3DC (disease control rating) / HV activity at 100 ppm SEPTTR 1DP (disease control rating) / LV activity at 125.1 g/H SEPTTR 1DP (disease control rating) / LV activity at 125.1 g/H SEPTTR 3DC (disease control rating): A: > 80; B: ≤ 80; C: Not Tested; D: No Activity Observed in the Reported Assay. The assay is classed as in vivo. To be noted: for SEPTTR 1DP disease control rating, HV activity at 100 ppm / SEPTTR 3DC disease control rating, HV activity at 100 ppm: high volume application; for SEPTTR 1DP disease control rating, HV activity at 100 ppm / SEPTTR 1DP disease control rating, LV activity at 125.1 g/H: 1 day protectant; for SEPTTR 3DC disease control rating, HV activity at 100 ppm / SEPTTR 3DC disease control rating, LV activity at 125.1 g/H: 3 day curative; for SEPTTR 1DP disease control rating, HV activity / SEPTTR 3DC disease control rating, HV activity: HV application at 100 ppm.

Assay [2] concerns Puccinia triticina. In words: Wheat brown rust (PUCCRT) disease control on wheat seedlings. Type of assay: in vivo. Also on record: key to PUCCRT 3DC, HV activity at 100 ppm (% control rating) / PUCCRT disease control, 3DC / PUCCRT 1DP disease control rating, HV activity / PUCCRT 3DC disease control rating, HV activity / PUCCRT 3DC, LV activity at 125.1 g/H (% Control rating) / PUCCRT 1DP, LV activity at 125.1 g/H (% Control rating) / PUCCRT 3DC disease control rating, LV activity at 125.1 g/H / PUCCRT 1DP disease control rating, LV activity at 125.1 g/H / PUCCRT 3DC disease control rating, HV activity at 100 ppm / PUCCRT 1DP disease control rating, HV activity at 100 ppm / HV activity at 100 ppm PUCCRT 3DC (disease control rating) / LV activity at 125.1 g/H PUCCRT 1DP (disease control rating) / LV activity at 125.1 g/H PUCCRT 3DC (disease control rating): A: > 80; B: ≤ 80; C: Not Tested; D: No Activity Observed in the Reported Assay. The note with it: for PUCCRT 1DP disease control rating, HV activity at 100 ppm / PUCCRT 3DC disease control rating, HV activity at 100 ppm: high volume application; for PUCCRT 1DP disease control rating, HV activity at 100 ppm / PUCCRT 1DP disease control rating, LV activity at 125.1 g/H: 1 day protectant; for PUCCRT 3DC disease control rating, HV activity at 100 ppm / PUCCRT 3DC disease control rating, LV activity at 125.1 g/H: 3 day curative; for PUCCRT 1DP disease control rating, HV activity / PUCCRT 3DC disease control rating, HV activity: HV application at 100 ppm.

The mark [3] stands for this setting: 1 Day Protectant, wheat leaf blotch.
The mark [4] stands for this setting: 3 Day Curative, wheat leaf blotch.
Setting [5] is: 1 Day Protectant, wheat brown rust.
Where [6] appears, read: 3 Day Curative, wheat brown rust.
Setting [7] is: low volume application, 125.1 g/H.

Each structure is given as a SMILES string.

For `CCC[C@@H](Oc1ccc(Cl)c(OC)c1)[C@H](C)OC(=O)[C@H](C)NC(=O)c1nccc(OC)c1O` [Cmpd 1008], in assay [1], the “SEPTTR 1DP disease control rating, HV activity at 100 ppm” value was “B (≤ 80)” and the “SEPTTR 3DC disease control rating, HV activity at 100 ppm” value is “B (≤ 80)”. In assay [2], the “PUCCRT 1DP disease control rating, HV activity at 100 ppm” value is on record as “B (≤ 80)” and the “PUCCRT 3DC disease control rating, HV activity at 100 ppm” value is “B (≤ 80)”.
In the case of `COc1ccnc(C(=O)N[C@@H](C)C(=O)O[C@H](C)[C@@H](Oc2ccccc2)C(C)C)c1O` [Cmpd 349], the “SEPTTR 1DP disease control rating, HV activity” value in assay [1] (setting [3]) is “D”. For the same compound, the “SEPTTR 3DC disease control rating, HV activity” value in assay [1] (setting [4]) is given as “B (≤ 80)”. In addition, the “PUCCRT 1DP disease control rating, HV activity” value in assay [2] (setting [5]) was “D”. For the same compound, the “PUCCRT 3DC disease control rating, HV activity” value in assay [2] (setting [6]) is given as “D”.
In the case of `COc1ccnc(C(=O)NC(C)C(=O)OC(C)C(OCC(C)C)c2ccccc2)c1O` (stereo not shown) [Cmpd 820], in assay [1], the “SEPTTR 1DP disease control rating, HV activity at 100 ppm” value was “A (> 80)” and the “SEPTTR 3DC disease control rating, HV activity at 100 ppm” value was “A (> 80)”. For the same compound, in assay [2], the “PUCCRT 1DP disease control rating, HV activity at 100 ppm” value was “A (> 80)” and the “PUCCRT 3DC disease control rating, HV activity at 100 ppm” value is recorded as “A (> 80)”.
In the case of `COc1ccnc(C(=O)NC(C)C(=O)OC(C)C(Oc2cccc(C(F)(F)F)c2)C(C)C)c1O` (stereo not shown) [Cmpd 433], the “SEPTTR 1DP disease control rating, HV activity” value in assay [1] (setting [3]) is given as “D”. For the same compound, in assay [1] (setting [4]), the “SEPTTR 3DC disease control rating, HV activity” value was “D”. Also, the “PUCCRT 1DP disease control rating, HV activity” value in assay [2] (setting [5]) is reported as “A (> 80)”. The “PUCCRT 3DC disease control rating, HV activity” value in assay [2] (setting [6]) was “A (> 80)”.
As to `COc1ccnc(C(=O)NC(C)C(=O)OC(C)C(Oc2ccccc2)c2ccc(-c3ccccc3)cc2)c1OCOC(C)=O` (stereo not shown) [Cmpd 905], in assay [1] (setting [7]), the “SEPTTR 1DP disease control rating, LV activity at 125.1 g/H” value is “A (> 80)” and the “SEPTTR 3DC disease control rating, LV activity at 125.1 g/H” value is recorded as “A (> 80)”. In addition, in assay [2] (setting [7]), the “PUCCRT 1DP disease control rating, LV activity at 125.1 g/H” value is recorded as “A (> 80)” and the “PUCCRT 3DC disease control rating, LV activity at 125.1 g/H” value is listed as “B (≤ 80)”.
For the compound `CCC[C@@H](Oc1cccc(Cl)c1)[C@H](C)OC(=O)[C@H](C)NC(=O)c1nccc(OC)c1OC(C)=O` [Cmpd 1056], in assay [1] (low volume application, 125.1 g/H, 1 Day Protectant, wheat leaf blotch), the “LV activity at 125.1 g/H SEPTTR 1DP (disease control rating)” value was “A (> 80)”. Also, the “LV activity at 125.1 g/H SEPTTR 3DC (disease control rating)” value in assay [1] (low volume application, 125.1 g/H, 3 Day Curative, wheat leaf blotch) is “A (> 80)”. In assay [2] (low volume application, 125.1 g/H, 1 Day Protectant, wheat brown rust), the “LV activity at 125.1 g/H PUCCRT 1DP (disease control rating)” value was “A (> 80)”. Moreover, the “LV activity at 125.1 g/H PUCCRT 3DC (disease control rating)” value in assay [2] (low volume application, 125.1 g/H, 3 Day Curative, wheat brown rust) is on record as “A (> 80)”.
For the compound `COc1ccnc(C(=O)N[C@@H](C)C(=O)O[C@@H](C)[C@H](OCC2CC2)c2cccc(-c3ccccc3)c2)c1OC(C)=O` [Cmpd 875], in assay [1] (setting [7]), the “SEPTTR 1DP disease control rating, LV activity at 125.1 g/H” value is reported as “A (> 80)” and the “SEPTTR 3DC disease control rating, LV activity at 125.1 g/H” value is “A (> 80)”. For the same compound, in assay [2] (setting [7]), the “PUCCRT 1DP disease control rating, LV activity at 125.1 g/H” value is “A (> 80)” and the “PUCCRT 3DC disease control rating, LV activity at 125.1 g/H” value is recorded as “A (> 80)”.
On to `COc1ccnc(C(=O)N[C@@H](C)C(=O)O[C@@H](C)[C@@H](Oc2ccccc2)c2cccnc2)c1OC(C)=O` [Cmpd 849], for which, in assay [1] (setting [7]), the “SEPTTR 1DP disease control rating, LV activity at 125.1 g/H” value is given as “D” and the “SEPTTR 3DC disease control rating, LV activity at 125.1 g/H” value was “B (≤ 80)”. Further, in assay [2] (setting [7]), the “PUCCRT 1DP disease control rating, LV activity at 125.1 g/H” value is “D” and the “PUCCRT 3DC disease control rating, LV activity at 125.1 g/H” value was “B (≤ 80)”.
As to `C=C[C@H](C)[C@@H](Oc1ccccc1)[C@H](C)OC(=O)[C@H](C)NC(=O)c1nccc(OC)c1O` [Cmpd 415], the “SEPTTR 1DP disease control rating, HV activity” value in assay [1] (setting [3]) is given as “A (> 80)”. Moreover, in assay [1] (setting [4]), the “SEPTTR 3DC disease control rating, HV activity” value is reported as “A (> 80)”. The “PUCCRT 1DP disease control rating, HV activity” value in assay [2] (setting [5]) is recorded as “A (> 80)”. In addition, the “PUCCRT 3DC disease control rating, HV activity” value in assay [2] (setting [6]) is “A (> 80)”.
For `CCCOC[C@H](C)OC(=O)[C@H](C)NC(=O)c1nccc(OC)c1O` [Cmpd 334], the “SEPTTR 1DP disease control rating, HV activity” value in assay [1] (setting [3]) is on record as “B (≤ 80)”. Besides, the “SEPTTR 3DC disease control rating, HV activity” value in assay [1] (setting [4]) is reported as “B (≤ 80)”. In addition, the “PUCCRT 1DP disease control rating, HV activity” value in assay [2] (setting [5]) was “D”. The “PUCCRT 3DC disease control rating, HV activity” value in assay [2] (setting [6]) is given as “B (≤ 80)”.
